The data set has as its system rodent carcinogenicity bioassays, tumor incidence. Nature of the data set: CCRIS carcinogenicity studies. A digest of the protocol: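 NCI-built, expert-reviewed records of carcinogenicity and related test outcomes (mutagenicity, tumor promotion/inhibition) compiled from published and report sources, historical span 1985-2011, not updated.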

Molecules are shown by their SMILES. The source made the active and inactive calls. The rule behind the calls is not given here.

For the compound `ClC1=C(Cl)C2(Cl)C3C(Cl)C(Cl)CC3C1(Cl)C2(Cl)Cl` (stereo not given), the carcinogen call by setting is: (Species: MOUSE, Strain/Sex: C57B1/MALE, Route: ORAL, Dose: 0, 50 PPM IN DIET FOR 24 MO (STUDY DURATION: 24 MO), Tumor Site: Type of Lesion: LIVER: ADENOMA OR CARCINOMA) “active; positive”; (Species: MOUSE, Strain/Sex: ICR/FEMALE, Route: ORAL, Dose: 0, 1, 5, 12.5 PPM IN DIET FOR 104 WK (STUDY DURATION: 104 WK), Dose: 0, 1, 5, 12.5 PPM IN DIET FOR 104 WK (STUDY DURATION: 104 WK)) “inactive; negative”; (Species: MOUSE, Strain/Sex: ICR/MALE, Route: ORAL, Dose: 0, 1, 5, 12.5 PPM IN DIET FOR 104 WK (STUDY DURATION: 104 WK), Dose: 0, 1, 5, 12.5 PPM IN DIET FOR 104 WK (STUDY DURATION: 104 WK), Tumor Site: Type of Lesion: LIVER: ADENOMA, HEMANGIOMA) “active; positive”; (Species: RAT, Strain/Sex: F344/FEMALE, Route: ORAL, Dose: 0, 1, 5, 25 PPM IN DIET FOR 130 WK (STUDY DURATION: 130 WK), Dose: 0, 1, 5, 25 PPM IN DIET FOR 130 WK (STUDY DURATION: 130 WK), Tumor Site: Type of Lesion: MAMMARY GLAND: FIBROADENOMA) “active; positive”; (Species: RAT, Strain/Sex: F344/MALE, Route: ORAL, Dose: 0, 1, 5, 25 PPM IN DIET FOR 130 WK (STUDY DURATION: 130 WK), Dose: 0, 1, 5, 25 PPM IN DIET FOR 130 WK (STUDY DURATION: 130 WK), Tumor Site: Type of Lesion: LIVER: NODULE) “active; positive”.
`CN(C)C(=O)Nc1ccc(Cl)cc1`: the carcinogen call is “inactive; negative” (Species: MOUSE, Strain/Sex: B6C3F1/FEMALE, Route: ORAL, Dose: 0, 5000, 10000 PPM IN DIET FOR 103 WK (STUDY DURATION: 107 WK), Dose: 0, 5000, 10000 PPM IN DIET FOR 103 WK (STUDY DURATION: 107 WK)); “inactive; negative” (Species: MOUSE, Strain/Sex: B6C3F1/MALE, Route: ORAL, Dose: 0, 5000, 10000 PPM IN DIET FOR 103 WK (STUDY DURATION: 107 WK), Dose: 0, 5000, 10000 PPM IN DIET FOR 103 WK (STUDY DURATION: 107 WK)); “inactive; negative” (Species: RAT, Strain/Sex: F344/FEMALE, Route: ORAL, Dose: 0, 750, 1500 PPM IN DIET FOR 103 WK (STUDY DURATION: 106 WK), Dose: 0, 750, 1500 PPM IN DIET FOR 103 WK (STUDY DURATION: 106 WK)); “active; positive” (Species: RAT, Strain/Sex: F344/MALE, Route: ORAL, Dose: 0, 750, 1500 PPM IN DIET FOR 103 WK (STUDY DURATION: 106 WK), Dose: 0, 750, 1500 PPM IN DIET FOR 103 WK (STUDY DURATION: 106 WK), Tumor Site: Type of Lesion: LIVER: NEOPLASTIC NODULE, NEOPLASTIC NODULE OR CARCINOMA, KIDNEY: TUBULAR CELL ADENOMA, TUBULAR CELL ADENOCARCINOMA).
`COc1cccc2c1C(=O)c1c(O)c3c(c(O)c1C2=O)C[C@@](O)(C(=O)CO)C[C@@H]3O[C@H]1C[C@H](N)[C@H](O)[C@H](C)O1`: the carcinogen call is “active; positive” (Species: RAT, Strain/Sex: SPRAGUE-DAWLEY/FEMALE, Route: INTRAVENOUS, Dose: 0, 5, 10 MG/KG IN SALINE SOLUTION ONCE (STUDY DURATION: 1 YR), Dose: 0, 5, 10 MG/KG IN SALINE SOLUTION ONCE (STUDY DURATION: 1 YR), Tumor Site: Type of Lesion: MAMMARY GLAND: FIBROADENOMA, ADENOCARCINOMA) and “active; positive” (Species: RAT, Strain/Sex: SPRAGUE-DAWLEY/MALE, Route: INTRAVENOUS, Dose: 0, 5, 10 MG/KG IN SALINE SOLUTION ONCE (STUDY DURATION: 1 YR), Dose: 0, 5, 10 MG/KG IN SALINE SOLUTION ONCE (STUDY DURATION: 1 YR), Tumor Site: Type of Lesion: MAMMARY GLAND: ADENOCARCINOMA).
Consider `CCCCN(CCCC(=O)O)N=O`, for which the carcinogen call runs as follows: (Species: MOUSE, Strain/Sex: B6D2F1/FEMALE, Route: ORAL, Dose: 0, 565 MG/L IN DRINKING WATER FOR 13 WK (STUDY DURATION: 28 WK), Tumor Site: Type of Lesion: URINARY BLADDER: TUMOR) “active; positive”; (Species: MOUSE, Strain/Sex: B6D2F1/MALE, Route: ORAL, Dose: 0, 565 MG/L IN DRINKING WATER FOR 13 WK (STUDY DURATION: 28 WK), Tumor Site: Type of Lesion: URINARY BLADDER: TUMOR) “active; positive”.
As for `CC1CN(N=O)CC(C)N1C` (stereo not given), the carcinogen call (Species: RAT, Strain/Sex: F344/FEMALE, Route: ORAL, Dose: 0, 110 MG/L IN DRINKING WATER 5 D/WK FOR 26 WK, STUDY DURATION: 40-50 WK, Dose: 0, 110 MG/L IN DRINKING WATER 5 D/WK FOR 26 WK, STUDY DURATION: 40-50 WK, Tumor Site: Type of Lesion: THYMUS GLAND: LYMPHOMA OR LEUKEMIA, MULTIPLE SITES: LYMPHOMA OR LEUKEMIA, NASAL CAVITY: CARCINOMA, Tumor Site: Type of Lesion: THYMUS GLAND: LYMPHOMA OR LEUKEMIA, MULTIPLE SITES: LYMPHOMA OR LEUKEMIA, NASAL CAVITY: CARCINOMA) was “active; positive”.
`COC1=CC(=O)C[C@@H](C)[C@]12Oc1c(Cl)c(OC)cc(OC)c1C2=O`: the carcinogen call (Species: MOUSE, Strain/Sex: CD-1/MALE,FEMALE, Route: ORAL, Dose: 1% IN DIET FOR 12 TO 16 MO, Tumor Site: Type of Lesion: LIVER: HEPATOMA) is “active; positive” and the carcinogen call (Species: MOUSE, Strain/Sex: ICR/MALE, Route: SUBCUTANEOUS, Dose: 0.5, 0.5, 1.0 OR 1.0 MG SUSPENDED IN TRICAPRYLIN (3 MG/ANIMAL, TOTAL DOSE) ON DAYS 1, 7, 14 AND 21 OF AGE, Tumor Site: Type of Lesion: LIVER: HEPATOMA) was “active; positive”.
With `[Ni]=[Te]`, for the setting “Species: RAT, Strain/Sex: F344/MALE, Route: INTRAMUSCULAR, Tumor Site: Type of Lesion: INJECTION SITE: SARCOMA”, the carcinogen call is “active; positive”.
As for `N#CCNC(=O)c1cnccc1C(F)(F)F`, the carcinogen call was “active; positive” (Species: Mouse, Strain/Sex: Crl:CD-1(ICR)BR VAF/Plus / Female (60/Group), Route: Oral, Dose: 0, 250, 750, 2250 ppm (0; 38; 112; 334 mg/kg/day) in diet for 18 mo, study duration 18 mo, Dose: 0, 250, 750, 2250 ppm (0; 38; 112; 334 mg/kg/day) in diet for 18 mo, study duration 18 mo, Tumor Site: Type of Lesion: Lung: alveolar/bronchiolar adenomas and carcinomas); “active; positive” (Species: Mouse, Strain/Sex: Crl:CD-1(ICR)BR VAF/Plus / Male (60/Group), Route: Oral, Dose: 0, 250, 750, 2250 ppm (0; 29; 88; 261 mg/kg/day) in diet for 18 mo, study duration 18 mo, Dose: 0, 250, 750, 2250 ppm (0; 29; 88; 261 mg/kg/day) in diet for 18 mo, study duration 18 mo, Tumor Site: Type of Lesion: Lung: alveolar/bronchiolar adenomas and carcinomas); “inactive; negative” (Species: Rat, Strain/Sex: Wistar (Jcl:Wistar)/Female (52/Group), Route: Oral, Dose: 0, 200, 1000, 5000 ppm (0; 8.92; 44.1; 219 mg/kg/day) in diet for 2 yr, study duration 2 yr, Dose: 0, 200, 1000, 5000 ppm (0; 8.92; 44.1; 219 mg/kg/day) in diet for 2 yr, study duration 2 yr); “inactive; negative” (Species: Rat, Strain/Sex: Wistar (Jcl:Wistar)/Male (52/Group), Route: Oral, Dose: 0, 50, 100, 200, 1000 ppm (0; 1.84; 3.68; 7.32; 36.5 mg/kg/day) in diet for 2 yr, study duration 2 yr, Dose: 0, 50, 100, 200, 1000 ppm (0; 1.84; 3.68; 7.32; 36.5 mg/kg/day) in diet for 2 yr, study duration 2 yr).
With `Nc1ccc2c(c1)C(=O)c1ccccc1C2=O`, the carcinogen call is “active; positive” (Species: MOUSE, Strain/Sex: B6C3F1/FEMALE, Route: ORAL, Dose: 0, 0.5, 1.0% OF DIET, Dose: 0, 0.5, 1.0% OF DIET, Tumor Site: Type of Lesion: LYMPHATIC SYSTEM: MALIGNANT LYMPHOMA, LIVER: HEPATOCELLULAR CARCINOMA); “active; positive” (Species: MOUSE, Strain/Sex: B6C3F1/MALE, Route: ORAL, Dose: 0, 0.5, 1.0% OF DIET, Dose: 0, 0.5, 1.0% OF DIET, Tumor Site: Type of Lesion: LIVER: HEPATOCELLULAR CARCINOMA, ADENOMA); “active; positive” (Species: RAT, Strain/Sex: F344/MALE, Route: ORAL, Dose: 0, 0.35, 0.69% OF DIET, Dose: 0, 0.35, 0.69% OF DIET, Tumor Site: Type of Lesion: LIVER: HEPATOCELLULAR CARCINOMA, NEOPLASTIC NODULE).
For `COc1cc(C(C)(C)C)c(O)c(C(C)(C)C)c1`, the carcinogen call (Species: HAMSTER, Strain/Sex: SYRIAN/MALE, Route: ORAL, Dose: 1% IN DIET FOR 24 WK (STUDY DURATION: 24 WK)) was “inactive; negative”.

The values above are taken from PubChem BioAssay AID1259411 (Chemical Carcinogenesis Research Information System (CCRIS), 2018).
